Laboratory results published in patent publication US6825350B2, “Sulfonamide and sulfamide substituted imidazoquinolines and methods for the treatment of periodontal disease using these and other immune response modifiers” (3M Innovative Properties Company, priority 1999, dated 2004).
Like-named read-outs stand apart in the source and are kept apart here.

Columns and labels:
[1] = test system: tumor necrosis factor (α); assay: Cytokine induction in human cells: tumor necrosis factor (α) by ELISA; format: cell-based; conditions: human PBMCs, 18 to 24 hours incubation, ELISA of culture supernatant, read-out: Lowest Effective Concentration (μM) Tumor Necrosis Factor
[2] = test system: interferon (α); assay: Cytokine induction in human cells: interferon (α) by ELISA; format: cell-based; conditions: human PBMCs, 18 to 24 hours incubation, ELISA of culture supernatant, read-out: Lowest Effective Concentration (μM) Interferon

| SMILES | minimal effective concentration ([1]; Homo sapiens, PBMC) [µM] | minimal effective concentration ([2]; Homo sapiens, PBMC) [µM] | minimal effective concentration [1] [µM] | minimal effective concentration [2] [µM] |
| --- | --- | --- | --- | --- |
| CCCCc1nc2c(N)nc3ccccc3c2n1CCCCNS(=O)(=O)c1c(F)c(F)c(F)c(F)c1F [Example 90] | 1 | 0.01 | – | – |
| CCCCc1nc2c(N)nc3ccccc3c2n1CCNS(=O)(=O)c1cccs1 [Example 19] | 3.33 | 0.12 | – | – |
| CCCCc1nc2c(N)nc3ccccc3c2n1CCCCNS(=O)(=O)c1cccc(OC)c1 [Example 104] | > 10 | 0.01 | – | – |
| CCCCc1nc2c(N)nc3ccccc3c2n1CCCCNS(=O)(=O)CCCC [Example 74] | 0.01 | 0.001 | – | – |
| COCCc1nc2c(N)nc3ccccc3c2n1CCCCNS(=O)(=O)Nc1ccccc1 [Example 224] | 10 | 0.0001 | – | – |
| COCCc1nc2c(N)nc3c(c2n1CCCCNS(=O)(=O)Cc1ccccc1)CCCC3 [Example 211] | 1 | 0.0001 | – | – |
| COCCc1nc2c(N)nc3ccccc3c2n1CCCCNS(=O)(=O)c1cccc(F)c1 [Example 122] | 1 | 0.0001 | – | – |
| COCCc1nc2c(N)nc3ccccc3c2n1CCCCNS(=O)(=O)c1cccs1 [Example 112] | > 10 | 0.0001 | – | – |
| CCCCc1nc2c(N)nc3ccccc3c2n1CCCCNS(=O)(=O)c1ccc(I)cc1 [Example 46] | > 30 | 0.37 | – | – |
| CCCS(=O)(=O)NCCCCn1c(CCOC)nc2c(N)nc3c(c21)CCCC3 [Example 208] | 1 | 0.0001 | – | – |
| Nc1nc2c(c3c1ncn3CCCCNS(=O)(=O)c1cccc3cccnc13)CCCC2 [Example 69] | > 30 | 10 | – | – |
| CCCCc1nc2c(N)nc3ccccc3c2n1CCCCNS(=O)(=O)c1ccc(-c2ccccc2)cc1 [Example 96] | > 10 | 1 | – | – |
| CC(C)S(=O)(=O)NCCCCn1cnc2c(N)nc3c(c21)CCCC3 [Example 55] | > 30 | 3.33 | – | – |
| COCCc1nc2c(N)nc3c(c2n1CCCCNS(=O)(=O)c1ccccc1)CCCC3 [Example 210] | 1 | 0.0001 | – | – |
| CCCCCCCCCCCCCCCCS(=O)(=O)NCCCCn1c(CCCC)nc2c(N)nc3ccccc3c21 [Example 75] | > 10 | > 10 | – | – |
| CCCCS(=O)(=O)NCCCCn1cnc2c(N)nc3ccccc3c21 [Example 13, N^1-[4-(4-Amino-1H-imidazo[4,5-c]quinolin-1-y)butyl]-1-butanesulfonamide] | > 30 | 10 | – | – |
| CCCCc1nc2c(N)nc3ccccc3c2n1CCCCNS(=O)(=O)c1cccc(F)c1 [Example 95] | 1 | 0.001 | – | – |
| CCCCc1nc2c(N)nc3ccccc3c2n1CCCCNS(=O)(=O)c1ccc(OC(F)(F)F)cc1 [Example 85] | > 10 | 1 | – | – |
| CCCCc1nc2c(N)nc3ccccc3c2n1CCCCNS(=O)(=O)c1ccc(Cl)c(Cl)c1 [Example 48] | 10 | 0.37 | – | – |

| SMILES | minimal effective concentration ([1]; Homo sapiens, PBMC) [µM] | minimal effective concentration ([2]; Homo sapiens, PBMC) [µM] | minimal effective concentration [1] [µM] | minimal effective concentration [2] [µM] |
| --- | --- | --- | --- | --- |
| COCCc1nc2c(N)nc3ccccc3c2n1CCCCNS(=O)(=O)C[C@@]12CCC(CC1=O)C2(C)C [Example 200] | 0.1 | 0.01 | – | – |
| CN(C)c1cccc2c(S(=O)(=O)NCCCCn3cnc4c(N)nc5c(c43)CCCC5)cccc12 [Example 71] | 30 | > 30 | – | – |
| COCCc1nc2c(N)nc3ccccc3c2n1CCCCNS(=O)(=O)c1cccc(Br)c1 [Example 184] | 1 | 0.0001 | – | – |
| COCCc1nc2c(N)nc3ccccc3c2n1CCCCNS(=O)(=O)Cc1ccccc1 [Example 113] | > 10 | 0.0001 | – | – |
| CCCCc1nc2c(N)nc3ccccc3c2n1CCCCNS(=O)(=O)c1ccccc1C(F)(F)F [Example 103] | 10 | 0.1 | – | – |
| Nc1nc2c(c3c1ncn3CCCCNS(=O)(=O)c1ccc(Cl)c(Cl)c1)CCCC2 [Example 60] | > 30 | > 30 | – | – |
| CCCCc1nc2c(N)nc3ccccc3c2n1CCCCNS(=O)(=O)c1cc(Br)ccc1OC [Example 105] | – | – | 10 | 1 |
| COCCc1nc2c(N)nc3ccccc3c2n1CCCCNS(=O)(=O)NC(C)(C)C [Example 230] | 1 | 0.0001 | – | – |
| CCCCc1nc2c(N)nc3ccccc3c2n1CCNS(=O)(=O)c1ccc(Br)cc1 [Example 21] | 30 | 1.11 | – | – |
| CCCCc1nc2c(N)nc3ccccc3c2n1CCCCNS(=O)(=O)c1c(F)cccc1F [Example 93] | 0.1 | 0.001 | – | – |
| CCCCc1nc2c(N)nc3ccccc3c2n1CCNS(=O)(=O)c1ccc(C)cc1 [Example 23] | 10 | 0.12 | – | – |
| Nc1nc2c(c3c1ncn3CCCCNS(=O)(=O)c1cccc3ccccc13)CCCC2 [Example 70] | > 30 | > 30 | – | – |
| CCCCS(=O)(=O)NCCCCn1c(CCOC)nc2c(N)nc3ccccc3c21 [Example 117] | 1 | 0.0001 | – | – |
| CCCCc1nc2c(N)nc3ccccc3c2n1CCCCNS(=O)(=O)c1c(C)c(C)c(C)c(C)c1C [Example 107] | > 10 | 1 | – | – |
| CCCCc1nc2c(N)nc3ccccc3c2n1CCCCNS(=O)(=O)c1ccc2ccccc2c1 [Example 42] | > 30 | 0.01 | – | – |
| CCCCc1nc2c(N)nc3ccccc3c2n1CCCCNS(=O)(=O)c1c(C(C)C)cc(C(C)C)cc1C(C)C [Example 76] | > 10 | > 10 | – | – |
| COCCc1nc2c(N)nc3ccccc3c2n1CCCCNS(=O)(=O)c1ccc(Cl)s1 [Example 131] | 1 | 0.0001 | – | – |
| Nc1nc2c(c3c1ncn3CCCCNS(=O)(=O)c1ccccc1)CCCC2 [Example 58] | > 30 | 3.33 | – | – |
| CCOCc1nc2c(N)nc3ccccc3c2n1CCNS(=O)(=O)c1cccc2c(N(C)C)cccc12 [Example 110] | > 10 | 10 | – | – |

| SMILES | minimal effective concentration ([1]; Homo sapiens, PBMC) [µM] | minimal effective concentration ([2]; Homo sapiens, PBMC) [µM] | minimal effective concentration [1] [µM] | minimal effective concentration [2] [µM] |
| --- | --- | --- | --- | --- |
| CCCCc1nc2c(N)nc3ccccc3c2n1CCCCNS(=O)(=O)C[C@]12CC[C@H](CC1=O)C2(C)C [Example 73] | 0.1 | 0.001 | – | – |
| CCOCc1nc2c(N)nc3ccccc3c2n1CCNS(=O)(=O)N(C)C [Example 217] | > 10 | 1 | – | – |
| Nc1nc2c(c3c1ncn3CCCCNS(=O)(=O)c1ccc(I)cc1)CCCC2 [Example 61] | > 30 | 3.33 | – | – |
| CCCCc1nc2c(N)nc3ccccc3c2n1CCNS(=O)(=O)c1cccc2ccccc12 [Example 31] | > 30 | 1.11 | – | – |
| Nc1nc2c(c3c1ncn3CCCCNS(=O)(=O)c1cccs1)CCCC2 [Example 57] | > 30 | 3.33 | – | – |
| COCCc1nc2c(N)nc3ccccc3c2n1CCCCNS(=O)(=O)c1ccc(Cl)cc1 [Example 128] | 1 | 0.0001 | – | – |
| CCCCCCCCS(=O)(=O)NCCn1c(CCCC)nc2c(N)nc3ccccc3c21 [Example 18] | > 30 | 3.33 | – | – |
| CCCCc1nc2c(N)nc3ccccc3c2n1CCCCNS(=O)(=O)c1ccc(OC)c(OC)c1 [Example 81] | 1 | 0.001 | – | – |
| CCCCc1nc2c(N)nc3ccccc3c2n1CCCCNS(=O)(=O)c1cccc([N+](=O)[O-])c1 [Example 83] | 1 | 0.001 | – | – |
| CCCCc1nc2c(N)nc3ccccc3c2n1CCCCNS(=O)(=O)CCCCl [Example 82] | 1 | 0.001 | – | – |
| COCCc1nc2c(N)nc3ccccc3c2n1CCCCNS(=O)(=O)NCc1ccccc1 [Example 231] | 1 | 0.0001 | – | – |
| Nc1nc2c(c3c1ncn3CCCCNS(=O)(=O)c1ccc(Cl)cc1)CCCC2 [Example 59] | > 30 | 3.33 | – | – |
| CC(C)(C)c1ccc(S(=O)(=O)NCCCCn2cnc3c(N)nc4c(c32)CCCC4)cc1 [Example 62] | > 30 | > 30 | – | – |
| CCCCc1nc2c(N)nc3ccccc3c2n1CCCCNS(=O)(=O)c1sc(NC(C)=O)nc1C [Example 77] | 1 | 0.001 | – | – |
| CCCCc1nc2c(N)nc3ccccc3c2n1CCCCNS(=O)(=O)c1cccs1 [Example 44] | – | – | 1.11 | 0.0015 |
| COCCc1nc2c(N)nc3ccccc3c2n1CCCCNS(=O)(=O)c1ccc(OC(F)(F)F)cc1 [Example 154] | 10 | 0.001 | – | – |
| CCCCc1nc2c(N)nc3ccccc3c2n1CCCCNS(=O)(=O)c1cccc(C(F)(F)F)c1 [Example 80] | 10 | 1 | – | – |
| CCCCc1nc2c(N)nc3ccccc3c2n1CCCCNS(=O)(=O)c1cccc2cccnc12 [Example 43] | > 30 | 0.04 | – | – |
| CCCCc1nc2c(N)nc3ccccc3c2n1CCCCNS(=O)(=O)/C=C/c1ccccc1 [Example 50] | > 30 | 0.12 | – | – |
